What was measured:
[1] = system: rice; experiment: Test B flood test rice; format: in vivo, Oryza sativa
How it was run: (§1)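 Plants were grown to the 2-leaf stage before treatment with test chemical, then held in a greenhouse for twelve to sixteen days. Injury was visually rated against untreated controls on a 0–10 scale, where 0 is no effect and 10 is complete control.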

[2] = system: sugar beet; experiment: Test B pre/postemergence sugar beet; format: in vivo, Beta vulgaris
How it was run: (§2)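 Response is a visual 0-to-10 score relative to untreated plants, where 0 means no effect and 10 means complete control, taken twelve to sixteen days after application. Treatments went onto soil at planting and onto foliage of 1- to 4-leaf plants, using a surfactant-containing non-phytotoxic solvent.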

[3] = system: crabgrass; experiment: Test B pre/postemergence crabgrass; format: in vivo, Digitaria sanguinalis
How it was run: as §2

[4] = system: purple nutsedge; experiment: Test B pre/postemergence purple nutsedge; format: in vivo, Cyperus rotundus
How it was run: as §2

[5] = system: pigweed; experiment: Test B pre/postemergence pigweed; format: in vivo, Amaranthus retroflexus
How it was run: as §2

[6] = system: bamyardgrass; experiment: Test B flood test barnyardgrass; format: in vivo, Echinochloa crus-galli
How it was run: as §1

[7] = system: duck salad; experiment: Test B flood test duck salad; format: in vivo, Heteranthera limosa
How it was run: as §1

[8] = system: morningglory; experiment: Test B pre/postemergence morningglory; format: in vivo, Ipomoea hederacea
How it was run: as §2

[9] = system: corn; experiment: Test B pre/postemergence corn; format: in vivo, Zea mays
How it was run: as §2

[10] = system: surinam grass; experiment: Test B pre/postemergence surinam grass; format: in vivo, Brachiaria decumbens
How it was run: as §2

[11] = system: giant foxtail; experiment: Test B pre/postemergence giant foxtail; format: in vivo, Setaria faberii
How it was run: as §2

[12] = system: wild oat; experiment: Test B pre/postemergence wild oat; format: in vivo, Avena fatua
How it was run: as §2

[13] = system: smallflower flatsedge; experiment: Test B flood test smallflower flatsedge; format: in vivo, Cyperus difformis
How it was run: as §1

[14] = system: rape; experiment: Test B pre/postemergence rape; format: in vivo, Brassica napus
How it was run: as §2

[15] = system: soybean; experiment: Test B pre/postemergence soybean; format: in vivo, Glycine max
How it was run: as §2

[16] = system: cocklebur; experiment: Test B pre/postemergence cocklebur; format: in vivo, Xanthium strumarium
How it was run: as §2

[17] = Rate 16 g/ha, head printed Pre-emergence (flood test species), scale 0 to 10, 0 no effect, 10 complete control
[18] = Rate 31 g/ha, Pre-emergence section (flood test species), scale 0 to 10
[19] = Rate 62 g/ha, headed Pre-emergence (flood test species), scale 0 to 10 (0 no effect, 10 complete control)
[20] = Rate 125 g/ha, Pre-emergence, flood test species, scale 0 to 10 where 0 is no effect and 10 is complete control
[21] = Rate 250 g/ha, Pre-emergence, flood-test species, scale 0 to 10, 0 is no effect, 10 is complete control
[22] = Rate 500 g/ha, Pre-emergence, flood test species, scale 0 to 10 (0 no effect, 10 complete control)
[23] = Postemergence, Rate 31 g/ha, visual rating, scale 0 to 10 (0 no effect, 10 complete control)
[24] = Preemergence, Rate 31 g/ha, visual rating, scale 0 to 10 (0 no effect, 10 complete control)
[25] = Preemergence, Rate 62 g/ha, scale of 0 to 10 where 0 is no effect and 10 is complete control
[26] = Rate 16 g/ha, Postemergence, scale 0 to 10, 0 no effect, 10 complete control
[27] = Rate 16 g/ha, Preemergence, scale 0 to 10, 0 no effect, 10 complete control
[28] = Rate 62 g/ha, Postemergence, scale 0 to 10 (0 no effect, 10 complete control)
[29] = Rate 125 g/ha, Postemergence, scale of 0 to 10 where 0 is no effect and 10 is complete control
[30] = Rate 125 g/ha, Preemergence, scale of 0 to 10 where 0 is no effect and 10 is complete control

C=CCCCn1c(=O)on(C(=O)N(c2ccc(F)cc2)C(C)C)c1=O [Compound 291]
Rice plant response rating [1, 17]: 0
Rice plant response rating [1, 18]: 0
Rice plant response rating [1, 19]: 0
Rice plant response rating [1, 20]: 2
Rice plant response rating [1, 21]: 0
Rice plant response rating [1, 22]: 0
Sugarbeets plant response rating [2, 23]: 0
Sugarbeets plant response rating [2, 24]: 0
Sugarbeets plant response rating [2, 25]: 0
Sugarbeets plant response rating [2, 26]: 0
Sugarbeets plant response rating [2, 27]: 0
Sugarbeets plant response rating [2, 28]: 0
Sugarbeets plant response rating [2, 29]: 0
Sugarbeets plant response rating [2, 30]: 0
Crabgrass plant response rating [3, 23]: 0
Crabgrass plant response rating [3, 24]: 0
Crabgrass plant response rating [3, 25]: 0
Crabgrass plant response rating [3, 26]: 0
Crabgrass plant response rating [3, 27]: 0
Crabgrass plant response rating [3, 28]: 0
Crabgrass plant response rating [3, 29]: 0
Crabgrass plant response rating [3, 30]: 0
Nutsedge plant response rating [4, 23]: 0
Nutsedge plant response rating [4, 24]: 0
Nutsedge plant response rating [4, 25]: 0
Nutsedge plant response rating [4, 26]: 0
Nutsedge plant response rating [4, 27]: 0
Nutsedge plant response rating [4, 28]: 0
Nutsedge plant response rating [4, 29]: 0
Nutsedge plant response rating [4, 30]: 0
Redroot pigweed plant response rating [5, 23]: 0
Redroot pigweed plant response rating [5, 24]: 0
Redroot pigweed plant response rating [5, 25]: 0
Redroot pigweed plant response rating [5, 26]: 0
Redroot pigweed plant response rating [5, 27]: 0
Redroot pigweed plant response rating [5, 28]: 0
Redroot pigweed plant response rating [5, 29]: 0
Redroot pigweed plant response rating [5, 30]: 0
Barnyardgrass plant response rating [6, 17]: 0
Barnyardgrass plant response rating [6, 18]: 2
Barnyardgrass plant response rating [6, 19]: 2
Barnyardgrass plant response rating [6, 20]: 4
Barnyardgrass plant response rating [6, 21]: 4
Barnyardgrass plant response rating [6, 22]: 6
Ducksalad plant response rating [7, 17]: 0
Ducksalad plant response rating [7, 18]: 0
Ducksalad plant response rating [7, 19]: 0
Ducksalad plant response rating [7, 20]: 0
Ducksalad plant response rating [7, 21]: 0
Ducksalad plant response rating [7, 22]: 0
Morningglory plant response rating [8, 23]: 1
Morningglory plant response rating [8, 24]: 0
Morningglory plant response rating [8, 25]: 0
Morningglory plant response rating [8, 26]: 1
Morningglory plant response rating [8, 27]: 0
Morningglory plant response rating [8, 28]: 4
Morningglory plant response rating [8, 29]: 4
Morningglory plant response rating [8, 30]: 0
Corn plant response rating [9, 23]: 0
Corn plant response rating [9, 24]: 0
Corn plant response rating [9, 25]: 0
Corn plant response rating [9, 26]: 0
Corn plant response rating [9, 27]: 0
Corn plant response rating [9, 28]: 0
Corn plant response rating [9, 29]: 0
Corn plant response rating [9, 30]: 0
B. signalgrass plant response rating [10, 23]: 0
B. signalgrass plant response rating [10, 24]: 0
B. signalgrass plant response rating [10, 25]: 0
B. signalgrass plant response rating [10, 26]: 0
B. signalgrass plant response rating [10, 27]: 0
B. signalgrass plant response rating [10, 28]: 0
B. signalgrass plant response rating [10, 29]: 0
B. signalgrass plant response rating [10, 30]: 3
Giant foxtail plant response rating [11, 23]: 0
Giant foxtail plant response rating [11, 24]: 8
Giant foxtail plant response rating [11, 25]: 8
Giant foxtail plant response rating [11, 26]: 0
Giant foxtail plant response rating [11, 27]: 7
Giant foxtail plant response rating [11, 28]: 0
Giant foxtail plant response rating [11, 29]: 0
Giant foxtail plant response rating [11, 30]: 9
Wild oats plant response rating [12, 23]: 0
Wild oats plant response rating [12, 24]: 0
Wild oats plant response rating [12, 25]: 0
Wild oats plant response rating [12, 26]: 0
Wild oats plant response rating [12, 27]: 0
Wild oats plant response rating [12, 28]: 0
Wild oats plant response rating [12, 29]: 0
S. Flatsedge plant response rating [13, 17]: 0
S. Flatsedge plant response rating [13, 18]: 0
S. Flatsedge plant response rating [13, 19]: 0
S. Flatsedge plant response rating [13, 20]: 0
S. Flatsedge plant response rating [13, 21]: 0
S. Flatsedge plant response rating [13, 22]: 0
Rape plant response rating [14, 23]: 0
Rape plant response rating [14, 24]: 0
Rape plant response rating [14, 25]: 0
Rape plant response rating [14, 26]: 0
Rape plant response rating [14, 27]: 0
Rape plant response rating [14, 28]: 0
Rape plant response rating [14, 29]: 1
Rape plant response rating [14, 30]: 0
Soybean plant response rating [15, 23]: 1
Soybean plant response rating [15, 24]: 0
Soybean plant response rating [15, 25]: 0
Soybean plant response rating [15, 26]: 1
Soybean plant response rating [15, 27]: 0
Soybean plant response rating [15, 28]: 1
Soybean plant response rating [15, 29]: 3
Soybean plant response rating [15, 30]: 0
Cocklebur plant response rating [16, 23]: 0
Cocklebur plant response rating [16, 24]: 0
Cocklebur plant response rating [16, 25]: 0
Cocklebur plant response rating [16, 26]: 0
Cocklebur plant response rating [16, 27]: 0
Cocklebur plant response rating [16, 28]: 0
Cocklebur plant response rating [16, 29]: 0
Cocklebur plant response rating [16, 30]: 0

Reference: US6737383B1, “Herbicidal oxadiazolidines” (priority 1999, dated 2004)
